Experimental data as given in ChEMBL document CHEMBL1158770, “Cladionol A, a polyketide glycoside from marine-derived fungus Gliocladium species” (J Nat Prod, 2005).
≈ marks a conversion by molar mass, not a printed value.

Legend:
L1210 = experiment: Cytotoxicity against mouse L1210 cells; type: functional, cell-based
KB = experiment: Cytotoxicity against human KB cells; type: functional, cell-based

CCC(C)CC(C)CC(C)C(O[C@@H]1O[C@H](C(=O)OC)[C@@H](O)[C@H](O)[C@@H]1O)C(C)/C=C(\C)C(O)C(C)/C=C(\C)C(O)C(C)/C=C(\C)[C@H](O)[C@@H](C)C(=O)OC[C@H](O)[C@@H](O)[C@@H](O)CO (some centres not stated) [CLADIONOL A]
IC50 (L1210): 5 µg/mL (≈ 5.79 µM)
IC50 (KB): 7 µg/mL (≈ 8.11 µM)
